In EP4700019A1, “CRYSTAL FORM OF 1,5-DIHYDRO-2,4-BENZODIAZEPINE-3-ONE DERIVATIVE CITRATE, PREPARATION METHOD, AND USE THEREOF” (priority 2023, dated 2024):
Structures can show the parent of a compound that is named as a salt. Where two headings read alike, the source gives them in different places.

Experiments:
5-HT2B receptors = 5-HT2B receptors (Homo sapiens, UniProt P41595); settings: no significant affinity; cited from earlier work
adrenergic receptors = settings: no significant affinity; cited from earlier work
muscarinic receptors = settings: no significant affinity; cited from earlier work
[1] = target: calcium channel receptors; settings: no significant affinity; cited from earlier work
[2] = target: dopamine receptors (including D2 receptors); settings: no significant affinity; cited from earlier work
[3] = Stability test (high humidity, light, high temperature, high temperature stress; HPLC); type: physicochemical
Experimental: These samples were stored under two different conditions: (1) relative humidity of 92.5% at 25°C, and (2) relative humidity of 75% ± 1% at room temperature; The samples were maintained under these conditions for 10 days. Sampling was performed on day 0 and day 10, followed by HPLC analysis.
HPLC analysis was performed on day 0 and day 10.
Samples were collected and subjected to HPLC analysis.

[4] = type: physicochemical; settings: Water, 25°C ± 2°C
Experimental: An appropriate amount of the test substance was accurately weighed And placed under conditions of 25°C ± 2°C. Different solvents were added in suitable quantities, and the mixture was vigorously shaken for 30 seconds every 5 minutes, and the dissolution status was observed over a period of 30 minutes. […]

[5] = Pharmacokinetics and bioavailability test in beagle dogs (Test Example 3); type: in vivo; settings: for bioavailability: absolute oral bioavailability
Experimental: Six healthy male beagle dogs were randomly divided into three groups, with two dogs in each group. […] Blood samples were collected from the forelimb vein of the dogs before and at various time points after administration. Plasma drug concentrations at different times were measured by LC-MS/MS. Pharmacokinetic parameters and the absolute oral bioavailability were calculated using WinNonlin7.0 software.

[6] = Stability test (high humidity, light, high temperature, high temperature stress; HPLC); type: physicochemical; remark: listed apart in the source
[7] = Pharmacokinetics and bioavailability test in beagle dogs (Test Example 4); type: in vivo
Experimental: Experimental method: Six healthy beagle dogs were randomly divided into two groups, with two dogs (one female and one male) in the first group, and four dogs (two females and two males) in the second group. […] Blood samples were collected from the forelimb veins of beagle dogs at various time points before and after administration. Plasma was obtained by centrifugation, and drug concentrations in plasma at different time points were measured using LC-MS/MS. Pharmacokinetic parameters and the absolute oral bioavailability were calculated using WinNonlin8.0 software.

[8] = 75% High humidity for 10 days, room temperature
[9] = 92.5% High humidity for 10 days, 25°C
[10] = PO 5 mg/kg (calculated as free base), capsules, male beagle dogs, plasma
[11] = High temperature of 40 °C for 10 days
[12] = High temperature of 60 °C for 10 days
[13] = High temperature of 105 °C for 1 day
[14] = Light exposure for 10 days (5000 lx ± 500 lx; UV 90 µW/cm^2)
[15] = PO 10 mg/kg (calculated based on free base), capsule
[16] = both sexes, dog, plasma, PO 10 mg/kg (calculated based on free base), capsule
[17] = IV 0.69 mg/kg (calculated based on free base)
[18] = dog, in vivo, IV 0.69 mg/kg (calculated based on free base)

Sequence of 5-HT2B receptors (P41595 whole entry): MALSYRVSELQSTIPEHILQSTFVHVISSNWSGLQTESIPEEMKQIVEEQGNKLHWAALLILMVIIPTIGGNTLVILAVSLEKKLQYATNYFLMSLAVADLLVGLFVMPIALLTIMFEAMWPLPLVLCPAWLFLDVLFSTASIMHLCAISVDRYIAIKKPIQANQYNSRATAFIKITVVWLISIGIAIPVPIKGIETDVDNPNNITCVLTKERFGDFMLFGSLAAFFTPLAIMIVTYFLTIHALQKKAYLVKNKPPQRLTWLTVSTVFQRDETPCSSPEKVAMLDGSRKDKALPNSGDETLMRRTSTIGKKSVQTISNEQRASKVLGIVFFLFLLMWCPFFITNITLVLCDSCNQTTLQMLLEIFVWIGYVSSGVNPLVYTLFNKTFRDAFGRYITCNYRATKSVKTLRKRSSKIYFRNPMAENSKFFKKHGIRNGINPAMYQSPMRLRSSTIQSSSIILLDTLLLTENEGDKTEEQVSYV

For `CC(C)COc1ccc(CNC(=O)N(Cc2ccc(F)cc2)C2CCN(C)CC2)cc1` [Pimavanserin], which Ki (5-HT2B receptors) is on record?
The Ki was greater than 300 nM.

And the Ki (adrenergic receptors)?
Its Ki is greater than 300 nM.

What about the Ki (muscarinic receptors) of the same compound?
Its Ki is greater than 300 nM.

And the Ki [1]?
The Ki was greater than 300 nM.

And the Ki [2]?
The Ki was greater than 300 nM.

What does the source list for `CN1CCC(N2Cc3cc(F)ccc3CN(Cc3ccc(OC4CC4)cc3)C2=O)CC1` [Base compound, 2-(4-cyclopropyloxybenzyl)-7-fluoro-4-(1-methylpiperidin-4-yl)-1,2,4-tetrahydro-3H-benzo[e][1,3]d iazepine-3-one]?
HPLC determination results of the stability [3, 8]: 97.643%; HPLC determination results of the stability [3, 9]: 97.703%; HPLC determination results of the stability ([3]; original sample (0 day)): 98.018%; Conclusion (solubility) [4]: insoluble; AUC0-last [5, 10]: 43.9 ng·h/mL; Cmax [5, 10]: 10.2 ng/mL; bioavailability ([5]; PO 5 mg/kg (calculated as free base), capsules, male beagle dogs): 2.4%; HPLC determination results of the stability [6, 11]: 95.418%; HPLC determination results of the stability [6, 12]: 82.682%; HPLC determination results of the stability [6, 13]: 76.929%; HPLC determination results of the stability [6, 14]: 95.604%

For `CN1CCC(N2Cc3cc(F)ccc3CN(Cc3ccc(OC4CC4)cc3)C2=O)CC1.O=C(O)CC(O)(CC(=O)O)C(=O)O` [Crystalline form II, 2-(4-cyclopropyloxybenzyl)-7-fluoro-4-(1-methylpiperidin-4-yl)-1,2,4,5-tetrahydro-3H-benzo[e] [1,3]diazepine-3-one citrate], which “HPLC determination results of the stability” value (“HPLC determination results” below) [3, 8] is on record?
The value was 99.749%.

What about the “HPLC determination results” value [3, 9] of the same compound?
The value was 99.735%.

What about the “HPLC determination results” value ([3]; original sample (0 day)) of the same compound?
The value was 99.839%.

What about the “Conclusion (solubility)” value ([4]; citrate) of the same compound?
Its value is “Very Slightly Soluble”.

What about the bioavailability ([5]; dog, plasma, PO 5 mg/kg (calculated as free base), capsules, male beagle dogs, read-out: bioavailability) of the same compound?
Its bioavailability is 7.4%.

And the AUC(0-t) ([5]; dog, PO 5 mg/kg (calculated as free base), capsules, male beagle dogs, plasma)?
Its AUC(0-t) is 139 ng·h/mL.

And the Cmax ([5]; dog, PO 5 mg/kg (calculated as free base), capsules, male beagle dogs, plasma, read-out: Cmax)?
Its Cmax is 38.8 ng/mL.

And the “increase of bioavailability compared with the base compound” value ([5]; oral solid dosage form, PO 5 mg/kg, beagle dogs)?
The value was “more than 3 times”.

What about the AUC_%Extrap [7, 15] of the same compound?
The AUC_%Extrap was 2.12%.

What about the MPT0-last [7, 15] of the same compound?
Its MPT0-last is 6.62 h.

What about the Rsq_adj [7, 15] of the same compound?
The Rsq_adj was 1.00.

What about the AUC(0-inf) [7, 16] of the same compound?
Its AUC(0-inf) is 6400 ng·h/mL.

And the AUC(0-t) [7, 16]?
The AUC(0-t) was 6280 ng·h/mL.

What about the Cmax [7, 16] of the same compound?
Its Cmax is 754 ng/mL.

What about the Tmax [7, 16] of the same compound?
The Tmax was 2.25 h.

What about the half-life [7, 16] of the same compound?
Its half-life is 3.96 h.

What about the bioavailability ([7]; both sexes, dog, plasma, PO 10 mg/kg (calculated based on free base), capsule, absolute oral bioavailability) of the same compound?
The bioavailability was 94.8%.

What about the “HPLC determination results” value [6, 11] of the same compound?
Its value is 99.756%.

What about the “HPLC determination results” value [6, 12] of the same compound?
The value was 99.723%.

What about the “HPLC determination results” value [6, 13] of the same compound?
The value was 99.709%.

What about the “HPLC determination results” value [6, 14] of the same compound?
The value was 99.762%.

Which results are given for `CN1CCC(N2Cc3cc(F)ccc3CN(Cc3ccc(OC4CC4)cc3)C2=O)CC1` [citrate, 2-(4-cyclopropyloxybenzyl)-7-fluoro-4-(1-methylpiperidin-4-yl)-1,2,4-tetrahydro-3H-benzo[e][1 ,3]diazepine-3-one citrate]?
AUC(0-t) ([5]; dog, in vivo, IV 1 mg/kg, male beagle dogs, plasma): 348 ng·h/mL; Cmax ([5]; dog, in vivo, IV 1 mg/kg, male beagle dogs, plasma, read-out: Cmax): 138 ng/mL; AUC_%Extrap [7, 17]: 4.20%; MPT0-last [7, 17]: 4.41 h; Rsq_adj [7, 17]: 1.00; AUC(0-inf) [7, 18]: 466 ng·h/mL; AUC(0-t) [7, 18]: 447 ng·h/mL; Cmax [7, 18]: 220 ng/mL; Tmax [7, 18]: 0.08 h; clearance [7, 18]: 24.7 mL/min/kg; half-life [7, 18]: 2.2 h; Vd ([7]; dog, in vivo, IV 0.69 mg/kg (calculated based on free base), read-out: Vdss): 2.5 L/kg
